Laboratory results published in patent US20150246093A1, “ORAL FORMULATIONS OF ANGIOTENSIN” (TARIX PHARMACEUTICALS LTD., priority 2012, published 2015).
Where two headings read alike, the source gives them in different places.

Assay: Pharmacokinetics after intra-duodenal injection (ID) in anesthetized rats, model mimicking enteric-coated oral dosage form, plasma LC-MS
Type: in vivo, rat
Conditions: rat, plasma; for Tmax / AUC(0-t) / Cmax / Half-Life: other: intra-duodenal injection (ID); for AUC(0-t): read-out: AUC0-90 (converted); for Cmax: read-out: Cmax; for level at 5 min: time point 5 min; for level at 5 min / level at 10 min / level at 20 min / level at 40 min / level at 1 h / level at 1.5 h: Average, read-out: Angiotensin (1-7) concentration; for level at 10 min: time point 10 min; for level at 20 min: time point 20 min; for level at 40 min: time point 40 min; for level at 1 h: time point 60 min; for level at 1.5 h: time point 90 min
Method: This model mimics the release and absorption expected from an orally delivered enteric coated solid dosage form such as capsule or tablet.
After extraction, the samples were then transferred to ice-cold tubes containing a protease inhibitor cocktail. The samples were kept on ice until they were centrifuged at 4° C. to obtain plasma. The plasma supernatants were then frozen −70° C. until analysis using an LC-MS assay.
The oral delivery of an angiotensin (1-7) peptide (e.g., TXA127) was then evaluated in a rat model that mimics the release of the peptide into the intestine by enteric-coated capsule. Briefly, the duodenums of anesthetized rats were surgically exposed, and an angiotensin (1-7) peptide was delivered through a 27 gauge needle into the duodenum. A baseline was obtained by ID administration of an angiotensin (1-7) in PBS. Samples of blood was removed from the carotid artery before and 5, 10, 20, 40, 60 and 90 minutes after peptide administration. Subsequently, an angiotensin (1-7) peptide was administered ID in 400 mM citrate buffer (pH 3.5) and lauroyl-L-carnitine (LLC) (10 mg/ml), a formulation that mimics the contents of the enteric-coated capsules. In order to maximize the stability of TXA127 in rat circulation, captopril (e.g., 0.5 mg/ml or 5 mg/ml) may be added to the formulations. Blood samples were taken at the same time points as the baseline study and handled as described above for analysis.

[1] = 3 mg, ID 0.3 ml A [10 mg/ml in PBS], Mean PK Values (average of individual PK parameters)
[2] = 3 mg, pH 3.5, ID 0.3 ml B [10 mg/ml, 10 mg/ml LLC, 400 mM Citrate pH 3.5, 150 mM NaCl], Average (PK value of the mean concentrations)
[3] = 3 mg, pH 3.5, ID 0.3 ml B [10 mg/ml, 10 mg/ml LLC, 400 mM Citrate pH 3.5, 150 mM NaCl], Mean PK Values (average of individual PK parameters)
[4] = 3 mg, pH 3.5, ID 0.3 ml C [10 mg/ml, Captopril 0.5 mg/ml, 10 mg/ml LLC, 400 mM Citrate pH 3.5, 150 mM NaCl], Average (PK value of the mean concentrations)
[5] = 3 mg, pH 3.5, ID 0.3 ml C [10 mg/ml, Captopril 0.5 mg/ml, 10 mg/ml LLC, 400 mM Citrate pH 3.5, 150 mM NaCl], Mean PK Values (average of individual PK parameters)
[6] = 3 mg, pH 3.5, ID 0.3 ml C [10 mg/ml, Captopril 5 mg/ml, 10 mg/ml LLC, 400 mM Citrate pH 3.5, 150 mM NaCl], Average (PK value of the mean concentrations)
[7] = 3 mg, pH 3.5, ID 0.3 ml C [10 mg/ml, Captopril 5 mg/ml, 10 mg/ml LLC, 400 mM Citrate pH 3.5, 150 mM NaCl], Mean PK Value (average of individual PK parameters)
[8] = pH 3.5, ID 0.3 ml C [10 mg/ml, Captopril 0.5 mg/ml, 10 mg/ml LLC, 400 mM Citrate pH 3.5, 150 mM NaCl]
[9] = pH 3.5, ID 0.3 ml C [10 mg/ml, Captopril 5 mg/ml, 10 mg/ml LLC, 400 mM Citrate pH 3.5, 150 mM NaCl]

CC[C@H](C)[C@H](NC(=O)[C@H](Cc1ccc(O)cc1)NC(=O)[C@@H](NC(=O)[C@H](CCCNC(=N)N)NC(=O)[C@@H](N)CC(=O)O)C(C)C)C(=O)N[C@@H](Cc1c[nH]cn1)C(=O)N1CCC[C@H]1C(=O)O [Angiotensin (1-7), Asp^1-Arg^2-Val^3-Tyr^4-Ile^5-His^6-Pro^7]
Tmax (3 mg, ID 0.3 ml A [10 mg/ml in PBS], Average (PK value of the mean concentrations), read-out: Tmax (converted)): 60 min
AUC(0-t) [1]: 6.72 ng·h/mL
Cmax [1]: 7.5 ng/mL
Half-Life (3 mg, ID 0.3 ml A [10 mg/ml in PBS], Mean PK Values (average of individual PK parameters), read-out: Half-Life): 38.9 min
Tmax (3 mg, ID 0.3 ml A [10 mg/ml in PBS], Mean PK Values (average of individual PK parameters), read-out: Tmax (converted)): 46 min
Half-Life (3 mg, ID, 0.3 mL of 10 mg/mL A(1-7) formulated in PBS, 6 rats, range over the group, read-out: Half-lives): 7 to 140 min
Tmax (3 mg, ID, 0.3 mL of 10 mg/mL A(1-7) formulated in PBS, 6 rats, range over the group, read-out: Tmax after administration): 10 to 60 min
AUC(0-t) [2]: 71.2 ng·h/mL
Cmax [2]: 416 ng/mL
Half-Life (3 mg, pH 3.5, ID 0.3 ml B [10 mg/ml, 10 mg/ml LLC, 400 mM Citrate pH 3.5, 150 mM NaCl], Average (PK value of the mean concentrations), read-out: Half-Life): 13 min
Tmax (3 mg, pH 3.5, ID 0.3 ml B [10 mg/ml, 10 mg/ml LLC, 400 mM Citrate pH 3.5, 150 mM NaCl], Average (PK value of the mean concentrations), read-out: Tmax (converted)): 5 min
AUC(0-t) [3]: 71.2 ng·h/mL
Cmax [3]: 419 ng/mL
Half-Life (3 mg, pH 3.5, ID 0.3 ml B [10 mg/ml, 10 mg/ml LLC, 400 mM Citrate pH 3.5, 150 mM NaCl], Mean PK Values (average of individual PK parameters), read-out: Half-Life): 46.4 min
Tmax (3 mg, pH 3.5, ID 0.3 ml B [10 mg/ml, 10 mg/ml LLC, 400 mM Citrate pH 3.5, 150 mM NaCl], Mean PK Values (average of individual PK parameters), read-out: Tmax (converted)): 5.8 min
Tmax (3 mg, pH 3.5, ID 0.3 ml B [10 mg/ml, 10 mg/ml LLC, 400 mM Citrate pH 3.5, 150 mM NaCl], individual rats, read-out: Tmax (converted)): 5 min
AUC(0-t) [4]: 126 ng·h/mL
Cmax [4]: 628 ng/mL
Half-Life (3 mg, pH 3.5, ID 0.3 ml C [10 mg/ml, Captopril 0.5 mg/ml, 10 mg/ml LLC, 400 mM Citrate pH 3.5, 150 mM NaCl], Average (PK value of the mean concentrations), read-out: Half-Life): 14 min
Tmax (3 mg, pH 3.5, ID 0.3 ml C [10 mg/ml, Captopril 0.5 mg/ml, 10 mg/ml LLC, 400 mM Citrate pH 3.5, 150 mM NaCl], Average (PK value of the mean concentrations), read-out: Tmax (converted)): 5 min
AUC(0-t) [5]: 119 ng·h/mL
Cmax [5]: 609 ng/mL
Half-Life (3 mg, pH 3.5, ID 0.3 ml C [10 mg/ml, Captopril 0.5 mg/ml, 10 mg/ml LLC, 400 mM Citrate pH 3.5, 150 mM NaCl], Mean PK Values (average of individual PK parameters), read-out: Half-Life): 19.4 min
Tmax (3 mg, pH 3.5, ID 0.3 ml C [10 mg/ml, Captopril 0.5 mg/ml, 10 mg/ml LLC, 400 mM Citrate pH 3.5, 150 mM NaCl], Mean PK Values (average of individual PK parameters), read-out: Tmax (converted)): 7.1 min
Tmax (3 mg, pH 3.5, ID 0.3 ml C [10 mg/ml, Captopril 0.5 mg/ml, 10 mg/ml LLC, 400 mM Citrate pH 3.5, 150 mM NaCl], individual rats, read-out: Tmax (converted)): 5 min
AUC(0-t) [6]: 157 ng·h/mL
Cmax [6]: 619 ng/mL
Half-Life (3 mg, pH 3.5, ID 0.3 ml C [10 mg/ml, Captopril 5 mg/ml, 10 mg/ml LLC, 400 mM Citrate pH 3.5, 150 mM NaCl], Average (PK value of the mean concentrations), read-out: Half-Life): 13 min
Tmax (3 mg, pH 3.5, ID 0.3 ml C [10 mg/ml, Captopril 5 mg/ml, 10 mg/ml LLC, 400 mM Citrate pH 3.5, 150 mM NaCl], Average (PK value of the mean concentrations), read-out: Tmax (converted)): 5 min
AUC(0-t) [7]: 156 ng·h/mL
Cmax [7]: 640 ng/mL
Half-Life (3 mg, pH 3.5, ID 0.3 ml C [10 mg/ml, Captopril 5 mg/ml, 10 mg/ml LLC, 400 mM Citrate pH 3.5, 150 mM NaCl], Mean PK Value (average of individual PK parameters), read-out: Half-Life): 14.1 min
Tmax (3 mg, pH 3.5, ID 0.3 ml C [10 mg/ml, Captopril 5 mg/ml, 10 mg/ml LLC, 400 mM Citrate pH 3.5, 150 mM NaCl], Mean PK Value (average of individual PK parameters), read-out: Tmax (converted)): 5.8 min
Tmax (3 mg, pH 3.5, ID 0.3 ml C [10 mg/ml, Captopril 5 mg/ml, 10 mg/ml LLC, 400 mM Citrate pH 3.5, 150 mM NaCl], individual rats, read-out: Tmax (converted)): 5 min
Half-Life (3 mg, pH 3.5, ID, 0.3 mL of 10 mg/mL A(1-7) with 10 mg/mL LLC, 400 mM Citrate, 150 mM NaCl pH 3.5, range over the group, read-out: Half-lives): 9.3 to 173 min
Tmax (3 mg, pH 3.5, ID, 0.3 mL of 10 mg/mL A(1-7) with 10 mg/mL LLC, 400 mM Citrate, 150 mM NaCl pH 3.5, range over the group, read-out: Tmax after administration): 5 to 10 min
Half-Life (pH 3.5, ID, 0.3 mL of 10 mg/mL A(1-7) with 0.5 mg/mL captopril, 10 mg/mL LLC, 400 mM Citrate, 150 mM NaCl pH 3.5, seven rats (Table 4), range over the group, read-out: Half-lives): 11.9 to 29.1 min
Half-Life (ID, 0.3 mL of 10 mg/mL A(1-7) with 0.5 mg/mL captopril (as printed in the text on Table 5), 10 mg/mL LLC, 400 mM Citrate, 150 mM NaCl pH 3.5, six rats, range over the group, read-out: Half-lives): 7.97 to 25.6 min
Tmax (ID, 0.3 mL of 10 mg/mL A(1-7) with 0.5 mg/mL captopril, 10 mg/mL LLC, 400 mM Citrate, 150 mM NaCl pH 3.5, seven rats (Table 4), range over the group, read-out: Tmax after administration): 5 to 10 min
level at 5 min [8]: 628 ng/mL
level at 10 min [8]: 233 ng/mL
level at 20 min [8]: 129 ng/mL
level at 40 min [8]: 13.9 ng/mL
level at 1 h [8]: 14.4 ng/mL
level at 1.5 h [8]: 7.74 ng/mL
level at 5 min [9]: 619 ng/mL
level at 10 min [9]: 424 ng/mL
level at 20 min [9]: 138 ng/mL
level at 40 min [9]: 24.1 ng/mL
level at 1 h [9]: 19.2 ng/mL
level at 1.5 h [9]: 5.83 ng/mL
